This test concerns HCV proteins in Rep5.1 cells (replicon cell line). Put plainly: Inhibitory activity of HCV: cell-based ELISA in replicon cell line Rep5.1 (decrease of HCV proteins). On the set-up: species or system hepatitis C virus. The following applies: Rep5.1 cells, 72 hours with drug. The procedure, abridged:
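HCV protein loss was quantified by ELISA on methanol/acetone-fixed cells 72 h after drug addition, probing with selected HCV-positive human plasma, and IC50 was defined as 50% reduction relative to untreated wells. The cells were Rep5.1 replicon cells cultured in DMEM-10 with 500 μg/ml G418, plated at 5000 per well and dosed with serial dilutions after 4 h attachment.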
On the technique in general: ELISA stands for enzyme-linked immunosorbent assay.

Where [1] appears, read: Hepatitis C virus, 72 h, concentration at which 50% of HCV proteins was decreased, Table 2, read-out: IC50.
[2] abbreviates: Hepatitis C virus, 72 h, decrease of HCV proteins measured by HCV antibody, Table 1, read-out: Level (IC50 values classified).
Where [3] appears, read: concentration at which 50% of HCV proteins was decreased, Table 2, read-out: IC50.

Like-named read-outs stand apart in the source and are kept apart here.

Results on 32 compounds are retold here after US20060116390A1, “Hepatitis c virus inhibitors” (priority 2003, published 2006).

The term IC50 denotes the midpoint of a concentration-inhibition curve.

Consider `CCOc1ccccc1CCOC(=O)C1=C(C)NC(=S)NC1` [Compound 273, 6-methyl-2-thioxo-1,2,3,4-tetrahydro-pyrimidine-5-carboxylic acid 2-(2-ethoxy-phenyl)-ethyl ester], for which the IC50 is 800 nM under setting [1] and < 1000 nM under setting [2].
In the same order, the values of `CC1=C(C(=O)OCCc2ccc(F)cc2)CNC(=S)N1` [Compound 259, 6-methyl-2-thioxo-1,2,3,4-tetrahydro-pyrimidine-5-carboxylic acid 2-(4-fluoro-phenyl)-ethyl ester] are < 400 nM and < 1000 nM.
The matching figures for `CC1=C(C(=O)OCC2COc3ccccc3O2)CNC(=S)N1` (centres unmarked) [Compound 195, 6-methyl-2-thioxo-1,2,3,4-tetrahydro-pyrimidine-5-carboxylic acid 2,3-dihydro-benzo[1,4]dioxin-2-ylmethyl ester]: 2000 nM and 1000 to 10000 nM.
For `CC1=C(C(=O)OCc2ccc(-c3cnc(C)s3)s2)CNC(=S)N1` [Compound 221, 6-methyl-2-thioxo-1,2,3,4-tetrahydro-pyrimidine-5-carboxylic acid 5-(2-methyl-thiazol-5-yl)-thiophen-2-ylmethyl ester], the IC50 was 2500 nM under setting [1] and 1000 to 10000 nM under setting [2].
For `CC(=O)OCC1NC(=S)NC(C)=C1C(=O)OCCCc1ccsc1` (centres unmarked) [22″, 4-acetoxymethyl-6-methyl-2-thioxo-1,2,3,4-tetrahydro-pyrimidine-5-carboxylic acid 3-thiophen-3-yl-propyl ester], the IC50 was 43000 nM under setting [1] and > 20000 nM under setting [2].
Take `COCCN(C)c1ccc(CCOC(=O)C2=C(C)NC(=S)NC2)cc1` [Compound 209, 6-methyl-2-thioxo-1,2,3,4-tetrahydro-pyrimidine-5-carboxylic acid 2-{4-[(2-methoxy-ethyl)-methyl-amino]-phenyl}-ethyl ester]: the half-maximal inhibitory concentration (IC50) under setting [1] was < 400 nM and the IC50 under setting [2] is < 1000 nM.
In the same order, the values of `CC1=C(C(=O)OC(c2ccccc2)c2ccccc2C)CNC(=S)N1` (centres unmarked) [Compound 57, 6-methyl-2-thioxo-1,2,3,4-tetrahydro-pyrimidine-5-carboxylic acid phenyl-o-tolyl-methyl ester] are 3500 nM and 1000 to 10000 nM.
In the same order, the values of `CC1=C(C(=O)OCCC2CCCC2)C(CO)NC(=S)N1` (centres unmarked) [36″, 4-hydroxymethyl-6-methyl-2-thioxo-1,2,3,4-tetrahydro-pyrimidine-5-carboxylic acid 2-cyclopentyl-ethyl ester] are 3000 nM and 1000 to 10000 nM.
In the same order, the values of `CC1=C(C(=O)OCCSc2nc3ccccc3s2)CNC(=S)N1` [Compound 224, 6-methyl-2-thioxo-1,2,3,4-tetrahydro-pyrimidine-5-carboxylic acid 2-(benzothiazol-2-ylsulfanyl)-ethyl ester] are 700 nM and < 1000 nM.
For `C=C(Br)CCOC(=O)C1=C(C)NC(=S)NC1` [Compound 99, 6-methyl-2-thioxo-1,2,3,4-tetrahydro-pyrimidine-5-carboxylic acid 3-bromo-but-3-enyl ester], the half-maximal inhibitory concentration (IC50) was 1800 nM under setting [1] and 1000 to 10000 nM under setting [2].
As for `CC1=C(C(=O)OCCCCCCCCCC(=O)O)CNC(=S)N1` [20′, 6-methyl-2-thioxo-1,2,3,4-tetrahydro-pyrimidine-5-carboxylic acid 9-carboxy-nonyl ester], the half-maximal inhibitory concentration (IC50) is 27000 nM under setting [1] and > 20000 nM under setting [2].
The matching figures for `CC1=C(C(=O)OCCc2ccc(Cl)c(Cl)c2)C(CO)NC(=S)N1` (centres unmarked) [42″, 4-hydroxymethyl-6-methyl-2-thioxo-1,2,3,4-tetrahydro-pyrimidine-5-carboxylic acid 2-(3,4-dichloro-phenyl)-ethyl ester]: < 400 nM and < 1000 nM.
In the same order, the values of `CC1=C(C(=O)OCCc2ccc(C)c(F)c2)C(CO)NC(=S)N1` (centres unmarked) [55″, 4-hydroxymethyl-6-methyl-2-thioxo-1,2,3,4-tetrahydro-pyrimidine-5-carboxylic acid 2-(3-fluoro-4-methyl-phenyl)-ethyl ester] are 500 nM and < 1000 nM.
The matching figures for `CC1=C(C(=O)OCCc2ccccc2F)CNC(=S)N1` [Compound 116, 6-methyl-2-thioxo-1,2,3,4-tetrahydro-pyrimidine-5-carboxylic acid 2-(2-fluoro-phenyl)-ethyl ester]: 500 nM and < 1000 nM.
For `CC1=C(C(=O)OC2Cc3ccccc3C2)CNC(=S)N1` [Compound 124, 6-methyl-2-thioxo-1,2,3,4-tetrahydro-pyrimidine-5-carboxylic acid indan-2-yl ester], the half-maximal inhibitory concentration (IC50) by setting is: under setting [1], 800 nM; under setting [2], < 1000 nM.
In the same order, the values of `CC1=C(C(=O)OCCc2cc3c(C)snc3s2)CNC(=S)N1` [5′, 6-methyl-2-thioxo-1,2,3,4-tetrahydro-pyrimidine-5-carboxylic acid 2-(3-methyl-thieno[2,3-c]isothiazol-5-yl)-ethyl ester] are 2500 nM and 1000 to 10000 nM.
In the same order, the values of `CC1=C(C(=O)OCc2nc3ccccc3s2)CNC(=S)N1` [Compound 226, 6-methyl-2-thioxo-1,2,3,4-tetrahydro-pyrimidine-5-carboxylic acid benzothiazol-2-ylmethyl ester] are 2200 nM and 1000 to 10000 nM.
For `CCOc1ccccc1CCOC(=O)C1=C(C)NC(=S)NC1CS(=O)(=O)C(C)(C)C` (centres unmarked) [30″, 6-methyl-4-(2-methyl-propane-2-sulfonylmethyl)-2-thioxo-1,2,3,4-tetrahydro-pyrimidine-5-carboxylic acid 2-(2-ethoxy-phenyl)-ethyl ester], the half-inhibitory concentration (IC50) by setting is: under setting [1], 50000 nM; under setting [2], > 20000 nM.
Consider `CC1=C(C(=O)OCCCc2ccsc2)C(CO)NC(=S)N1` (centres unmarked) [6″, 4-hydroxymethyl-6-methyl-2-thioxo-1,2,3,4-tetrahydro-pyrimidine-5-carboxylic acid 3-thiophen-3-yl-propyl ester], for which the 50% inhibitory concentration (IC50) is 1900 nM under setting [1] and 1000 to 10000 nM under setting [2].
The matching figures for `CC1=C(C(=O)OCCCc2cccnc2)CNC(=S)N1` [Compound 158, 6-methyl-2-thioxo-1,2,3,4-tetrahydro-pyrimidine-5-carboxylic acid 3-pyridin-3-yl-propyl ester]: > 100000 nM and > 20000 nM.
For `CC1=C(C(=O)OCc2ccc(F)cc2)CNC(=S)N1` [Compound 61, 6-methyl-2-thioxo-1,2,3,4-tetrahydro-pyrimidine-5-carboxylic acid 4-fluoro-benzyl ester], the 50% inhibitory concentration (IC50) runs as follows: under setting [1], 800 nM; under setting [2], < 1000 nM.
The matching figures for `CC1=C(C(=O)OCc2cccc(C)c2)CNC(=S)N1` [Compound 90, 6-methyl-2-thioxo-1,2,3,4-tetrahydro-pyrimidine-5-carboxylic acid 3-methyl-benzyl ester]: 400 nM and < 1000 nM.
The matching figures for `CC1=C(C(=O)OCCCc2ccc(F)cc2)CNC(=S)N1` [Compound 103, 6-methyl-2-thioxo-1,2,3,4-tetrahydro-pyrimidine-5-carboxylic acid 3-(4-fluoro-phenyl)-propyl ester]: < 400 nM and < 1000 nM.
For `CC1=C(C(=O)OCc2cc(C)on2)CNC(=S)N1` [47′, 6-methyl-2-thioxo-1,2,3,4-tetrahydro-pyrimidine-5-carboxylic acid 5-methyl-isoxazol-3-ylmethyl ester], the IC50 under setting [1] stood at 100000 nM and the IC50 under setting [2] was > 20000 nM.
Turning to `CCCN(CCC)c1ccc(CCOC(=O)C2=C(C)NC(=S)NC2CO)cc1[N+](=O)[O-]` (centres unmarked) [93″, 4-Hydroxymethyl-6-methyl-2-thioxo-1,2,3,4-tetrahydro-pyrimidine-5-carboxylic acid 2-(4-dipropylamino-3-nitro-phenyl)-ethyl ester], the concentration for half-maximal inhibition (IC50) under setting [1] was found to be 500 nM and the IC50 under setting [2] is < 1000 nM.
Consider `COCC#CCOC(=O)C1=C(C)NC(=S)NC1` [Compound 215, 6-methyl-2-thioxo-1,2,3,4-tetrahydro-pyrimidine-5-carboxylic acid 4-methoxy-but-2-inyl ester], for which, under setting [3], the IC50 was determined as 11000 nM.
On to `CCCCc1ccc(COC(=O)C2=C(C)NC(=S)NC2)cc1` [Compound 51, 6-methyl-2-thioxo-1,2,3,4-tetrahydro-pyrimidine-5-carboxylic acid 4-butyl-benzyl ester], for which the IC50 by setting is: under setting [1], < 500 nM; under setting [2], < 1000 nM.
For `CSCCCOC(=O)C1=C(C)NC(=S)NC1CO` (centres unmarked) [29″, 4-hydroxymethyl-6-methyl-2-thioxo-1,2,3,4-tetrahydro-pyrimidine-5-carboxylic acid 3-methylsulfanyl-propyl ester], the IC50 was > 100000 nM under setting [1] and > 20000 nM under setting [2].
In the same order, the values of `CC1=C(C(=O)OCCc2ccsc2Br)CNC(=S)N1` [Compound 247, 6-methyl-2-thioxo-1,2,3,4-tetrahydro-pyrimidine-5-carboxylic acid 2-(2-bromo-thiophen-3-yl)-ethyl ester] are < 400 nM and < 1000 nM.
In the case of `CCOCC#CCOC(=O)C1=C(C)NC(=S)NC1` [Compound 236, 6-methyl-2-thioxo-1,2,3,4-tetrahydro-pyrimidine-5-carboxylic acid 4-ethoxy-but-2-inyl ester], under setting [3], the IC50 was determined as 14000 nM.
On to `CC1=C(C(=O)OCc2ccccc2)CNC(=S)N1` [Compound 6, 6-methyl-2-thioxo-1,2,3,4-tetrahydro-pyrimidine-5-carboxylic acid benzyl ester], for which the IC50 reads like this: under setting [1], 1000 nM; under setting [2], < 1000 nM.
In the case of `CC1=C(C(=O)OCc2cc(F)c(F)c(F)c2)C(CF)NC(=S)N1` (centres unmarked) [91′, 4-fluoromethyl-6-methyl-2-thioxo-1,2,3,4-tetrahydro-pyrimidine-5-carboxylic acid 3,4,5-trifluoro-benzyl ester], the IC50 by setting is: under setting [1], 1600 nM; under setting [2], 1000 to 10000 nM.
